# Test system: 485368-065-R4-J2-PDC spheroids with HUVEC/MSC, viability
# Experiment: Anticancer human tumor 485368-065-R4-J2-PDC patient-derived pancreatic carcinoma cell line growth inhibition [CLK]
# Details: for IC50: curve of first compound; for viability, T/C: stronger effect = lower value
# How it was run: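 Multi-cell-type spheroids combined patient-derived tumor cells with HUVEC endothelial cells and human mesenchymal stem cells. Paired agents were dosed in half-log steps down from about clinical Cmax, or from 10 microM where Cmax was unknown.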
# 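Also: spheroids exposed to compounds for seven days.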
# 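For viability, T/C in this document: 100% = DMSO vehicle control wells.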
compound,measurement,setting,value
C=CC(=O)Nc1cc(Nc2nccc(-c3cn(C)c4ccccc34)n2)c(OC)cc1N(C)CCN(C)C + CNC(=O)c1ccc(Nc2nc(OC3CCCC3)c3c(-c4ccc5nc(C)oc5c4)c[nH]c3n2)c(OC)c1,IC50,second compound 0.0316 µM,> 300 nM
same,IC50,second compound 0.1 µM,> 300 nM
same,IC50,second compound 0.316 µM,> 300 nM
same,IC50,second compound 1 µM,> 300 nM
same,IC50,second compound 3.16 µM,> 300 nM
same,IC50,second compound 10 µM,> 300 nM
same,"viability, T/C","second compound 0.0316 µM, first compound 0.000949 µM",84.6%
same,"viability, T/C","second compound 0.0316 µM, first compound 0.003 µM",90%
same,"viability, T/C","second compound 0.0316 µM, first compound 0.00949 µM",88.8%
same,"viability, T/C","second compound 0.0316 µM, first compound 0.03 µM",93.4%
same,"viability, T/C","second compound 0.0316 µM, first compound 0.0949 µM",101%
same,"viability, T/C","second compound 0.0316 µM, first compound 0.3 µM",87.4%
same,"viability, T/C","second compound 0.1 µM, first compound 0.000949 µM",90.1%
same,"viability, T/C","second compound 0.1 µM, first compound 0.003 µM",89%
same,"viability, T/C","second compound 0.1 µM, first compound 0.00949 µM",95.6%
same,"viability, T/C","second compound 0.1 µM, first compound 0.03 µM",90.1%
same,"viability, T/C","second compound 0.1 µM, first compound 0.0949 µM",92.2%
same,"viability, T/C","second compound 0.1 µM, first compound 0.3 µM",98.4%
same,"viability, T/C","second compound 0.316 µM, first compound 0.000949 µM",82%
same,"viability, T/C","second compound 0.316 µM, first compound 0.003 µM",85.1%
same,"viability, T/C","second compound 0.316 µM, first compound 0.00949 µM",81.6%
same,"viability, T/C","second compound 0.316 µM, first compound 0.03 µM",79.5%
same,"viability, T/C","second compound 0.316 µM, first compound 0.0949 µM",83%
same,"viability, T/C","second compound 0.316 µM, first compound 0.3 µM",78%
same,"viability, T/C","second compound 1 µM, first compound 0.000949 µM",78.4%
same,"viability, T/C","second compound 1 µM, first compound 0.003 µM",72.6%
same,"viability, T/C","second compound 1 µM, first compound 0.00949 µM",81%
same,"viability, T/C","second compound 1 µM, first compound 0.03 µM",79.4%
same,"viability, T/C","second compound 1 µM, first compound 0.0949 µM",73.5%
same,"viability, T/C","second compound 1 µM, first compound 0.3 µM",70.8%
same,"viability, T/C","second compound 3.16 µM, first compound 0.000949 µM",69.4%
same,"viability, T/C","second compound 3.16 µM, first compound 0.003 µM",70.9%
same,"viability, T/C","second compound 3.16 µM, first compound 0.00949 µM",66.6%
same,"viability, T/C","second compound 3.16 µM, first compound 0.03 µM",68.4%
same,"viability, T/C","second compound 3.16 µM, first compound 0.0949 µM",66.8%
same,"viability, T/C","second compound 3.16 µM, first compound 0.3 µM",68.7%
same,"viability, T/C","second compound 10 µM, first compound 0.000949 µM",66.5%
same,"viability, T/C","second compound 10 µM, first compound 0.003 µM",67.6%
same,"viability, T/C","second compound 10 µM, first compound 0.00949 µM",70.1%
same,"viability, T/C","second compound 10 µM, first compound 0.03 µM",67.3%
same,"viability, T/C","second compound 10 µM, first compound 0.0949 µM",68.9%
same,"viability, T/C","second compound 10 µM, first compound 0.3 µM",58.6%

# — PubChem BioAssay AID2060617 (Molecular Pharmacology Branch, DTP, NCI, 2025)
